Results reported in patent US20250302909A1, “METHODS FOR THE TREATMENT OF AGE-RELATED MACULAR DEGENERATION” (Stealth BioTherapeutics Inc., priority 2024, published 2025).

Columns and labels:
[1] = test system: patients with at least one eye with dry AMD and GA; test: Phase 2 trial (NCT03891875): low-luminance best-corrected visual acuity (LL BCVA); format: in vivo, human; conditions: week 48
Procedure: (§1) Study design. […] (Allingham 2022; Mettu 2022).
Patients—Key inclusion criteria. The original protocol specified that adults ≥55 years of age with one eye with dry AMD and GA were eligible for study entry. However, a subsequent amendment to the protocol limited inclusion to patients with noncentral GA. Noncentral GA and area was determined primarily by fundus autofluorescence (FAF) and all noncentral GA lesions were required to be ≥150 μm from foveal center with preserved outer retinal structural details, as confirmed by the central reading center (BIRC, Boston MA). Noncentral GA was required to be ≥0.05 mm^2 and ≤10.16 mm^2 in size, and reside completely within the FAF 30- or 35-degree image. […] The fellow eye was allowed to have AMD with or without GA, MNV, central GA, or no pathology.
(§2) Study objectives and endpoints. The primary efficacy endpoints were changes from baseline in LL BCVA and in square root converted GA area as measured by OCT. Secondary efficacy endpoints included changes in ellipsoid zone integrity, categorical changes from baseline in LL-BCVA, changes from baseline in LL reading acuity (LLRA), BCVA, and GA area as measured by FAF. Additional predefined endpoints included change in center 1-mm and 2-mm mean EZ-RPE thickness, National Eye Institute Visual Function Questionnaire (VFQ-39) score, RA at standard light, visual function by the Low-Luminance Questionnaire (LLQ). For efficacy endpoints, the unit of analysis was study eye; in cases where both eyes were eligible for analysis, the study eye was the eye with the worse LL BCVA as determined at baseline (right eye was the study eye for equal LL BCVA). Ellipsoid zone integrity was measured as previously described on OCT utilizing a machine learning enhanced multi-layer segmentation platform that provided panmacular assessment of the EZ and RPE location (Sirici, et al., Ophthamol Surg Lasers Imaging Retina, 2022; Itoh, et al, Br J Ophthamol, 2016).
Statistical analysis. Safety and efficacy variables were summarized descriptively. […] Patients were analyzed according to the actual treatment received. […]

[2] = test system: patients with at least one eye with dry AMD and GA
Procedure: Study design. In this Phase 2, randomized, placebo-controlled, double-masked, multicenter, safety and efficacy trial (ClinicalTrials.gov identifier NCT03891875), patients with at least one eye with dry AMD and GA were included. Visit 1 (screening visit) was performed no more than 14 days before the baseline visit (visit 2, day 1) (FIG. 1). […] (Allingham 2022; Mettu 2022). Patients were treated for 48 weeks, with assessments at day 1 and weeks 4, 8, 12, 24, 36, and 48 (visits 2 to 8) plus a final safety follow-up visit 4 weeks after the last day of study treatment (week 52; visit 9). Patient diaries and vial counts were used and reviewed to verify compliance.
Safety/tolerability evaluations included assessment of the incidence and severity of adverse events/adverse device effects, incidence of conversion to MNV, changes from baseline in vital sign measurements, electrocardiograms, clinical evaluations, clinical laboratory evaluations, slit lamp examination, and dilated fundus examination.
Statistical analysis. Safety and efficacy variables were summarized descriptively. The safety population included all patients receiving ≥1 dose of investigational product. […] Patients were analyzed according to the actual treatment received. A sample size of 180 patients provides ≥80% power to detect a 5-letter (1-line) change from baseline mean difference in LL BCVA between drug and placebo, assuming a standard deviation of 11 letters, at a two-sided alpha-level of 0.10, and proves approximately 80% power to detect a 30% difference in the change from baseline in square root transformed total GA area by OCT between drug and placebo, assuming a standard deviation of 0.2 mm/year, and an average change of 0.33 mm/year, at a two-sided alpha-level of 0.1.

[3] = test system: patients with at least one eye with dry AMD and GA; test: Example 2: macular area of photoreceptor loss (tEZa) over time, linear mixed effects model; format: in vivo, human
Procedure: Data for this example was collected as part of the clinical study described above in Example 1. […] The primary analysis of rate of change in the macular area of photoreceptor loss over time was conducted using a linear mixed effects model assuming time as continuous and linear. […] Correlation between the repeated measurements of the same subject were accounted for by allowing an unstructured covariance matrix for the residuals. The outcome was the change in macular area of photoreceptor loss from baseline to each time point (time points being t=0, t=12 weeks, t=24 weeks, t=36 weeks and t=48 weeks) during the treatment period through week 48.

[4] = test system: patients with at least one eye with dry AMD and GA; test: Phase 2 trial: ellipsoid zone integrity (tEZa, pEZa) and GA on OCT; format: in vivo, human
Source text: as §1, §2
Statistical analysis. Safety and efficacy variables were summarized descriptively. […] Patients were analyzed according to the actual treatment received.
For continuous data, a mixed model for repeated measures was used for each eye separately (study eye), with fixed effects for treatment arm, study visit, the treatment arm-by-visit interaction, baseline as a covariate, a baseline-by-visit interaction, a random effect for subject, using an unstructured covariance structure. The primary time point for analysis was week 48 (end of treatment visit) and the mITT population was the primary analysis population using observed data. A family-wise alpha level of 0.1 was maintained for the primary endpoint family, using Hochberg's procedure at the primary time point of 48 weeks. […] Otherwise, the endpoint with the smaller p-value of the two was considered statistically significant, if statistically significant at the 0.05 (two-sided) level of significance.

[5] = general statement on formulation
[6] = Table 1, 117 randomized to elamipretide
[7] = clinical study, rate of growth of photoreceptor loss

Cc1cc(O)cc(C)c1C[C@H](NC(=O)[C@H](N)CCCNC(=N)N)C(=O)N[C@@H](CCCCN)C(=O)N[C@@H](Cc1ccccc1)C(N)=O (stereo in doubt) [elamipretide, H-D-Arg-2′,6′Dmt-Lys-Phe-NH2]
least-squares (LS) mean changes from baseline in LL BCVA ([1]; primary endpoint, 40 mg subcutaneous once daily, mITT, P=0.49 vs placebo): −3.0 letters
patients experiencing a ≥2-line gain (≥10 letter) in LL BCVA ([1]; 40 mg subcutaneous once daily, P=0.0404 vs placebo): 14.6%
percentage of patients experiencing a >1-line gain ([1]; LL BCVA, vs placebo): higher compared to placebo
Early discontinuation: Adverse event [2, 6]: 10 (8.5) n (%)
Early discontinuation: Withdrawal by subject [2, 6]: 20 (17.1) n (%)
Subjects leaving study early [2, 6]: 34 (29.1) n (%)
patients who discontinued the study early (percent) ([2]; of n=117 randomized): 29%
mean rate of macular photoreceptor loss compared with the untreated group ([3]; FIG. 3, MMRM, weeks 12, 24, 36 and 48): reduced mean rate of macular photoreceptor loss
decrease of the growth of photoreceptor loss ([3]; FIG. 3, change in tEZa from baseline, weeks 12 to 48, 40 mg subcutaneous once daily vs untreated): about 50%
clinical benefit in subjects who commenced therapy before developing measurable geographic atrophy (GA) [3, 7]: experienced clinical benefit
clinical benefit in subjects with non-central GA [3, 7]: experienced clinical benefit
reduction in progression of pEZa relative to placebo ([4]; LS mean change baseline to week 48): 47%
reduction in progression of tEZa relative to placebo ([4]; LS mean change baseline to week 48, macular percentage of tEZa): 43%
progression of GA area relative to the baseline boundary of total EZ attenuation ([4]; during the trial, elamipretide treated arm): GA area did not progress to the baseline boundary of total EZ attenuation
growth of partial EZ attenuation area during the trial ([4]; elamipretide arm, placebo arm 35%): 14%
growth of total EZ attenuation area (mm^2) during the trial ([4]; elamipretide arm, placebo arm 52%): 24%
rate of progression of the EZ-GA gap ([4]; post-hoc analysis): slower rate of progression
LS mean change from baseline to week 48 for macular percentage of tEZa (EZ-RPE thickness of 0 μm) ([4]; week 48, 40 mg subcutaneous once daily, P=0.0034 vs placebo): 3.69%
LS mean change from baseline to week 48 for pEZa (EZ-RPE thickness≤20 μm) ([4]; week 48, 40 mg subcutaneous once daily, P=0.0040 vs placebo): 4.10%
water solubility [5]: highly water soluble
